Experimental data reported in patent US7452869B2, “NIP3 family of proteins” (University of Manitoba, priority 2000, dated 2008).

Tests used:
caspase 3-like proteases = test: caspase activation, colorigenic cleavage of Ac-DEVD-pNA by lysates of transfected 293T cells; format: biochemical; conditions: 293T lysates harvested 1 to 36 hours posttransfection, versus untransfected controls
Method: Lysates were collected from 293T cells, transiently transfected via the CaP04 method (Ray, R., et al., 1999), at the indicated times. Aliquots of these lysates were run under Laemmli sodium dodecyl sulfate-polyacrylamide gel electrophoresis (SDS-PAGE) conditions and immunoblotted with mouse monoclonal anti-PARP. Results were visualized with an enhanced chemiluminescence system (Amersham Pharmacia Biotech, Amersham, U. K.). Transfected 293T cells were also assayed for caspase cleavage via colorigenic cleavage of the peptide Ac-DEVD-pNA (Biomol, Plymouth Meeting, Pa.), according to the conditions outlined by Quignon et al. (Scaffidi, C., et al., 1998), using 100 mM peptide. Where appropriate, samples were preincubated with 500 nM Ac-DEVD-fmk for 30 minutes at room temperature. Data were acquired on a Multiskan MCC/340 (Titertek) plate reader at 405 nm.

PT pore = test: mitochondrial Dcm (DiOC6), ROS production (HE) and PI staining by flow cytometry in BNIP3-transfected 293T cells; format: cell-based; conditions: 293T cells
Method: Changes in mitochondrial function were determined by incubating 10 6 293T cells, transiently transfected via the CaP04 method, with either 1 mM JC-1, 40 nM DiOC6, or 2 mM dihydroethidium (HE) (all from Molecular Probes, Inc.) for 30 minutes at 37° C. in Hanks' balanced salt solution (Gibco-BRL). Cells were scored using a FACScalibur flow cytometer (Becton-Dickinson, San Jose, Calif.), and data were analyzed on Celiquest software, version 3.1 (Becton-Dickinson). Controls were performed in the presence or absence of […] mClCCP (Sigma) or an excess of 30% H2 02. For inhibition experiments, cyclosporin A (Sigma) or bongkrekic acid (a gift from J. A. Duine, Delft University, Delft, The Netherlands) was added 2 hours prior to transfection. All cells were harvested 8 hours after transfection and stained with 40 nM DiOC6, 2 mM HE, or 1 mg of propidium iodide (PI) (Sigma) per ml. In all cases, samples were gated to exclude cellular debris.

MCF-7 cells = test: cytochrome c release by indirect immunofluorescence, MCF-7; format: cell-based
Method: (§1) Mitochondria were isolated from CaP04-transfected 293T cells using 70 strokes (tight pestle) in a 1-ml Dounce homogenizer (Wheaton) in […] of CFS buffer as previously described (Thornberry, N. A., et al., 1998). Mitochondria were resuspended in H buffer (Thornberry, N. A., et al., 1998). Aliquots of […] of protein were analyzed on Laemmli SDS-15% PAGE gels and immunoblotted with anticytochrome c monoclonal antibody. Equal loading was ensured by probing the same blot with monoclonal antiactin. Results were visualized with enhanced chemiluminescence. Cytochrome c release was also determined via indirect immunofluorescence of transfected MCF-7 and 293T cells. Briefly, cells grown on coverslips were costained with Cy3-conjugated mouse anti-cytochrome c monoclonal antibody and an appropriate tag (HA for BNIP3 and FLAG for tBID), which was visualized with FITC-conjugated goat anti-rabbit IgG. Cells were also stained with Hoechst dye to determine apoptotic nuclear morphology. No fewer than 200 cells were scored for each sample. Fluorescence was visualized and captured using a Zeiss axiophot microscope equipped with a cooled charge-coupled device camera.

293T cells = test: cytochrome c release by indirect immunofluorescence, 293T; format: cell-based
Method: as §1

BNIP3 = biological target: T1, BNIP3 (Homo sapiens, UniProt Q12983); test: BNIP3 induced cell death by exclusion of propidium iodide, co-transfection of BNIP3 DTM plasmid (FIG. 13); format: cell-based; conditions: 1.0 to 1.0 μg plasmid ratio BNIP3 DTM to BNIP3
T1 construct: a pcDNA3-BNIP3 plasmid encoding the full length of BNIP3; expressed in transfected cells
T1 sequence (Q12983 whole entry): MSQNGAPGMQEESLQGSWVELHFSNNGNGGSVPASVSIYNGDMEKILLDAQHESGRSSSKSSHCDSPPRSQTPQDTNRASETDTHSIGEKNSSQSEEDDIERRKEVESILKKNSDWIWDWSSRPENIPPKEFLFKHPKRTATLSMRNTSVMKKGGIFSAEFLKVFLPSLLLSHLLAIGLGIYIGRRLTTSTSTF
Method: Increasing concentrations of BNIP3 DTM plasmid (0.25 to 1.0 μg) were added to a constant amount of BNIP3 (1.0 μg). Cell death was determined by exclusion of propidium iodide. […] The BNIP3 DTM mutant contains amino acids 1-163, which is a deletion of the C-terminus of the protein that contains the transmembrane domain.

[1] = tested on: primary hippocampal neurons; test: primary hippocampal neurons transfected with BNIP3 plasmids, DNA condensation and survival; format: cell-based, rat; conditions: for BNIP3-positive neurons showing DNA condensation / DNA damage: transiently transfected hippocampal neurons
Method: Transfection of cells was performed on day four in culture with LipofectAMINE 2000 […] according to manufacturer's protocol. Cells were transfected with a pcDNA3-BNIP3 plasmid encoding the full length of BNIP3 and a pcDNA3-BNIP3-163 plasmid that encodes a truncated form (the first 163 amino acids) of BNIP3 that lacks the functional transmembrane domain. Cells were used after 9 days in culture for excitotoxicity experiments. Neuronal cell death was assessed using trypan blue exclusion, morphological changes, and Hoescht 33342 staining. Morphological characteristics were examined on a Nikon Eclipse TE200 microscope and fluorescence was examined on a Zeiss Axioskop 2.
In vitro cell death was estimated using trypan blue exclusion. Cells were incubated in 0.4% trypan blue solution for 30 minutes and then counted on a bright-field microscope. Nonviable cells were distinguished by their dark blue staining. To examine nuclear morphology, nuclear DNA was stained with Hoescht 33342. DNA fragmentation was detected by TUNEL using an in situ cell death detection kit with fluorescein. Statistical analyses were by ANOVA with Tukey's post-test.

ventricular myocytes = test: cell viability of ventricular myocytes, calcein acetoxymethyl ester / ethidium homodimer-1; format: cell-based; conditions: cells expressing BNIP3ΔTM
Method: Ventricular myocytes were isolated from 1- to 2-day-old Sprague-Dawley rats (University of Manitoba, Winnipeg, Canada) and submitted to primary culture as reported (Kirshenbaum and Schneider, 1995). Myocytes were subjected to hypoxia for 24 hours in an air-tight chamber continually gassed with 95% N2-5% CO2, as previously reported (Moissac et al., 2000; Long et al., 1997; Tanaka et al., 1994). Adult rat hearts (n=3) were excised from adult rats (250 to 300 g) and subjected to global hypoxia for 1 hour on a modified Langendorff perfusion system with buffer continually gassed with 95% N2-5% CO2, as previously reported (Kirshenbaum, 1993). Heart failure was induced in rats by surgical ligation of the left anterior descending coronary artery, as previously reported (Dixon et al., 1992). Non-failing sham control hearts and those with heart failure were excised from animals 8 weeks after myocardial infarction. Hearts (n=3) were dissected to remove the infarcted scar tissue, and the left ventricular free wall was homogenized and analyzed by Western blot for BNIP3 expression. Animals were handled according to guidelines established by the University of Manitoba and Canadian Council on Animal Care.
The cDNAs for BNIP3 full-length (BNIP3) and carboxyl terminal transmembrane domain deletion mutant (BNIP3ΔTM) have been described previously (Vande et al., 2000). Recombinant adenoviruses encoding the full-length BNIP3 or transmembrane deletion mutant are designated AdBNIP3 or AdBNIP3ΔTM, respectively, and generated as reported previously (Kirshenbaum et al., 1993).
Cell viability was determined using the vital dyes 2 μmol/L calcein acetoxymethyl ester (green) to determine the number of living cells and 2 μmol/L ethidium homodimer-1 (red) (Molecular Probes) to identify the number of dead cells (Kirshenbaum and Schneider, 1995). The number of green cells versus red cells was used to determine changes in cell viability (Moissac et al., 2000). Cells were analyzed from at least n=3 independent myocyte isolations counting ≧200 cells for each condition tested. Data are expressed as mean±SE percent reduction from control.

endogenous BNIP3 = biological target: T2, endogenous BNIP3 (Rattus norvegicus, UniProt A0ACM8Q210); test: alkali extraction of mitochondria of hypoxic ventricular myocytes, BNIP3 western blot; format: cell-based
T2 construct: endogenous in cells; host or cells: neonatal rat ventricular myocytes, with or without adenovirus AdBNIP3ΔTM
T2 sequence (A0ACM8Q210 1-187): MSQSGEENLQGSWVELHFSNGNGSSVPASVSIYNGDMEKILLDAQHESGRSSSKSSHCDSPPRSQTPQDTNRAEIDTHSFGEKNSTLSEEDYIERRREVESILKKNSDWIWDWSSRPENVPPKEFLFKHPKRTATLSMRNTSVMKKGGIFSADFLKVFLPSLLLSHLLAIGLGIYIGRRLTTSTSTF
Text: For detection of BNIP3 protein, total cardiac cell lysate was subjected to Western blot analysis using a murine antibody directed toward BNIP3 (Vande et al., 2000). To isolate mitochondria from ventricular myocytes, cells were washed in HIM buffer (200 mmol/L mannitol, 70 mmol/L sucrose, 10 mmol/L HEPES-KOH, 1 mmol/L EGTA, pH 7.5). The crude cell pellet was disrupted and resuspended in HIM buffer containing 2.0% wt/vol bovine serum albumin. The homogenate was ultracentrifuged to obtain the mitochondrial fraction and resuspended in 200 mmol/L sucrose, 10 mmol/L HEPES-KOH, 1 mmol/L ATP, 5 mmol/L sodium succinate, 0.08 mmol/L ADP, and 2 mmol/L K2HPO4. To assess whether BNIP3 integrates into mitochondrial membranes during hypoxia, mitochondria were subjected to alkali extraction using 0.01 mol/L Na2CO3 (pH 11.5); this will dissociate and solubilize proteins that are not membrane integrated (Vande et al, 2000; Goping et al, 1998). Antibodies directed toward the following Bcl-2 family members were obtained from respective suppliers: Bad (Transduction Laboratories Inc), Bax (Santa Cruz Inc), and Bak and Bcl-2 (Pharmingen). Bound proteins were visualized using enhanced chemiluminescence (ECL) reagents (Amersham Pharmacia Inc).

## BNIP3ΔTM: carboxyl terminal transmembrane deletion mutant of BNIP3, deletion of amino acids 164 to 194 (amino acids 1-163)
Caspase 3-like proteases
  increase in Ac-DEVD-pNA substrate cleavage after transfection: only marginal increases
PT pore
  DiOC6 / HE staining compared to untreated controls: not affected
MCF-7 cells
  cytochrome c release (in words): no significant cytochrome c release
293T cells
  cytochrome c release (in words): only very low levels
BNIP3
  cell death induced by BNIP3 (propidium iodide exclusion): background levels
[1]; glutamate 100 μM at day 9 in culture, 5 days after transfection
  neurons surviving glutamate toxicity: 68%
[1]; listed as BNIP^3-163
  BNIP3-positive neurons showing DNA condensation / DNA damage: 17%
[1]; listed as pcDNA3-BNIP3^3-163
  BNIP3-positive neurons showing DNA condensation / DNA damage: 24%
Ventricular myocytes
  toxicity to myocytes (viability versus control cells): not toxic
Ventricular myocytes; hypoxia 24 hours
  hypoxia-induced cell death of ventricular myocytes: markedly blunted
Endogenous BNIP3
  hypoxia-induced mitochondrial integration of the endogenous BNIP3 protein: suppressed
